System: 171881-019-R-J1-PDC complex spheroid growth, % test/control
Assay: Anticancer human tumor 171881-019-R-J1-PDC patient-derived invasive breast carcinoma cell line growth inhibition [Asc]
Details: for IC50: curve of first compound; for viability, T/C: stronger effect = lower value
Outline: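 Stromal components (HUVEC and hMSC) are co-assembled with the cancer cells into multicellular spheroids. Drugs are then added singly or paired, at concentrations falling by half-log increments from a clinically achievable maximum, capped at 10 microM without known Cmax.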

[1] = second compound 0.03 µM, first compound 0.0316 µM
[2] = second compound 0.03 µM, first compound 0.1 µM
[3] = second compound 0.03 µM, first compound 0.316 µM
[4] = second compound 0.03 µM, first compound 1 µM
[5] = second compound 0.03 µM, first compound 3.16 µM
[6] = second compound 0.03 µM, first compound 10 µM
[7] = second compound 0.0949 µM, first compound 0.0316 µM
[8] = second compound 0.0949 µM, first compound 0.1 µM
[9] = second compound 0.0949 µM, first compound 0.316 µM
[10] = second compound 0.0949 µM, first compound 1 µM
[11] = second compound 0.0949 µM, first compound 3.16 µM
[12] = second compound 0.0949 µM, first compound 10 µM
[13] = second compound 0.3 µM, first compound 0.0316 µM
[14] = second compound 0.3 µM, first compound 0.1 µM
[15] = second compound 0.3 µM, first compound 0.316 µM
[16] = second compound 0.3 µM, first compound 1 µM
[17] = second compound 0.3 µM, first compound 3.16 µM
[18] = second compound 0.3 µM, first compound 10 µM
[19] = second compound 0.949 µM, first compound 0.0316 µM
[20] = second compound 0.949 µM, first compound 0.1 µM
[21] = second compound 0.949 µM, first compound 0.316 µM
[22] = second compound 0.949 µM, first compound 1 µM
[23] = second compound 0.949 µM, first compound 3.16 µM
[24] = second compound 0.949 µM, first compound 10 µM
[25] = second compound 3 µM, first compound 0.0316 µM
[26] = second compound 3 µM, first compound 0.1 µM
[27] = second compound 3 µM, first compound 0.316 µM
[28] = second compound 3 µM, first compound 1 µM
[29] = second compound 3 µM, first compound 3.16 µM
[30] = second compound 3 µM, first compound 10 µM
[31] = second compound 0.03 µM, first compound 0.00316 µM
[32] = second compound 0.03 µM, first compound 0.01 µM
[33] = second compound 0.0949 µM, first compound 0.00316 µM
[34] = second compound 0.0949 µM, first compound 0.01 µM
[35] = second compound 0.3 µM, first compound 0.00316 µM
[36] = second compound 0.3 µM, first compound 0.01 µM
[37] = second compound 0.949 µM, first compound 0.00316 µM
[38] = second compound 0.949 µM, first compound 0.01 µM
[39] = second compound 3 µM, first compound 0.00316 µM
[40] = second compound 3 µM, first compound 0.01 µM
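Wherever viability, T/C is given: spheroids exposed to compounds for 7 days.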

IC50 (second compound 0.03 µM) [µM]	IC50 (second compound 0.0949 µM) [µM]	IC50 (second compound 0.3 µM) [µM]	IC50 (second compound 0.949 µM) [µM]	IC50 (second compound 3 µM) [µM]	SMILES	viability, T/C [1] [%]	viability, T/C [2] [%]	viability, T/C [3] [%]	viability, T/C [4] [%]	viability, T/C [7] [%]	viability, T/C [8] [%]	viability, T/C [9] [%]	viability, T/C [10] [%]	viability, T/C [13] [%]	viability, T/C [14] [%]	viability, T/C [15] [%]	viability, T/C [16] [%]	viability, T/C [19] [%]	viability, T/C [20] [%]	viability, T/C [21] [%]	other results
> 10	> 10	> 10	> 10	> 10	C#Cc1c(F)ccc2cc(O)cc(-c3ncc4c(N5CC6CCC(C5)N6)nc(OCC56CCCN5CC(F)C6)nc4c3F)c12 (stereo not given) + CCN1C(C(=O)NC23CCC(C(=O)O)(CC2)CC3)C(c2cccc(Cl)c2F)C2(C(=O)Nc3cc(Cl)ccc32)C12CCCCC2	120	116	136	192	117	117	158	208	120	127	127	204	116	123	146	viability, T/C [5]: 204%; viability, T/C [6]: 170%; viability, T/C [11]: 241%; viability, T/C [12]: 211%; viability, T/C [17]: 213%; viability, T/C [18]: 188%; viability, T/C [22]: 229%; viability, T/C [23]: 210%; viability, T/C [24]: 174%; viability, T/C [25]: 125%; viability, T/C [26]: 156%; viability, T/C [27]: 216%; viability, T/C [28]: 218%; viability, T/C [29]: 172%; viability, T/C [30]: 154%
5.96	5.86	6.18	5.79	6	C=C(F)C(=O)N1CCN(c2nc(OCC3CCCN3C)nc3c2CCN(c2cccc4cccc(Cl)c24)C3)CC1CC#N (stereo not given) + CCN1C(C(=O)NC23CCC(C(=O)O)(CC2)CC3)C(c2cccc(Cl)c2F)C2(C(=O)Nc3cc(Cl)ccc32)C12CCCCC2	107	105	104	110	99.9	107	112	108	117	105	112	120	118	120	108	viability, T/C [5]: 122%; viability, T/C [6]: 1.23%; viability, T/C [11]: 110%; viability, T/C [12]: 0.23%; viability, T/C [17]: 141%; viability, T/C [18]: 0.58%; viability, T/C [22]: 111%; viability, T/C [23]: 104%; viability, T/C [24]: 0.88%; viability, T/C [25]: 108%; viability, T/C [26]: 103%; viability, T/C [27]: 107%; viability, T/C [28]: 113%; viability, T/C [29]: 128%; viability, T/C [30]: 0.37%
> 10	> 10	> 10	> 10	> 10	C=CC(=O)N1CCN(c2nc(=O)n(-c3c(C)ccnc3C(C)C)c3nc(-c4c(O)cccc4F)c(F)cc23)C(C)C1 (stereo not given) + CCN1C(C(=O)NC23CCC(C(=O)O)(CC2)CC3)C(c2cccc(Cl)c2F)C2(C(=O)Nc3cc(Cl)ccc32)C12CCCCC2	103	102	100	96.8	93.5	91.7	107	112	116	105	105	109	96.5	104	116	viability, T/C [5]: 102%; viability, T/C [6]: 103%; viability, T/C [11]: 94.4%; viability, T/C [12]: 109%; viability, T/C [17]: 107%; viability, T/C [18]: 90.7%; viability, T/C [22]: 106%; viability, T/C [23]: 106%; viability, T/C [24]: 116%; viability, T/C [25]: 94.2%; viability, T/C [26]: 112%; viability, T/C [27]: 103%; viability, T/C [28]: 97%; viability, T/C [29]: 99.8%; viability, T/C [30]: 107%
> 1	> 1	> 1	> 1	> 1	CNC(C)C(=O)NC1CN(S(=O)(=O)c2cccc(S(=O)(=O)N3CCC4CCC(C(=O)NC(c5ccccc5)c5ccccc5)N4C(=O)C(NC(=O)C(C)NC)C3)c2)CCC2CCC(C(=O)NC(c3ccccc3)c3ccccc3)N2C1=O (stereo not given) + CCN1C(C(=O)NC23CCC(C(=O)O)(CC2)CC3)C(c2cccc(Cl)c2F)C2(C(=O)Nc3cc(Cl)ccc32)C12CCCCC2	99.1	93.3	93.7	93	94.5	91.7	109	90.2	103	109	93.5	100	113	88.5	109	viability, T/C [31]: 91.6%; viability, T/C [32]: 103%; viability, T/C [33]: 118%; viability, T/C [34]: 96.8%; viability, T/C [35]: 113%; viability, T/C [36]: 103%; viability, T/C [37]: 109%; viability, T/C [38]: 107%; viability, T/C [22]: 102%; viability, T/C [39]: 102%; viability, T/C [40]: 115%; viability, T/C [25]: 106%; viability, T/C [26]: 90.3%; viability, T/C [27]: 100%; viability, T/C [28]: 96%
0.0357	0.0367	0.0361	0.0331	0.0297	COc1c(OCCCN2CCOCC2)ccc2c3n(c(=NC(=O)c4cnc(N)nc4)nc12)CCN3 + CCN1C(C(=O)NC23CCC(C(=O)O)(CC2)CC3)C(c2cccc(Cl)c2F)C2(C(=O)Nc3cc(Cl)ccc32)C12CCCCC2	48.1	25.7	3.58	1.48	55	13.6	3.64	1.16	53.8	14.6	3.71	0.99	50.9	12.8	3.5	viability, T/C [31]: 158%; viability, T/C [32]: 118%; viability, T/C [33]: 182%; viability, T/C [34]: 141%; viability, T/C [35]: 143%; viability, T/C [36]: 133%; viability, T/C [37]: 159%; viability, T/C [38]: 126%; viability, T/C [22]: 1.21%; viability, T/C [39]: 171%; viability, T/C [40]: 122%; viability, T/C [25]: 46.1%; viability, T/C [26]: 9.69%; viability, T/C [27]: 2.19%; viability, T/C [28]: 1.28%

— PubChem BioAssay AID1963428 (Molecular Pharmacology Branch, DTP, NCI, 2024)
